Assay results from ChEMBL document CHEMBL1134476, “Pharmacological and behavioral analysis of the effects of some bivalent ligand-based monoamine reuptake inhibitors” (J Med Chem, 2001).
Each block holds one compound with its values, some of them ahead of it.

Tests used:
Format in all cases: subcellular, Brain
[1] = molecular target: T1, Sodium-dependent dopamine transporter (Rattus norvegicus, UniProt P23977); assay: Displacement of [3H]mazindol binding to dopamine transporter (DAT) in rat synaptosomes
[2] = molecular target: T1, Sodium-dependent dopamine transporter; assay: Inhibition of high affinity DA uptake into rat synaptosomes using [3H]DA
[3] = molecular target: T2, Norepinephrine transporter (Rattus norvegicus, UniProt Q9WTR4); assay: Ability to inhibit high affinity uptake of norepinephrine transporter into the nerve endings of rat synaptosomes using [3H]NE as a radioligand
[4] = molecular target: Sodium-dependent serotonin transporter (Rattus norvegicus, UniProt P31652); assay: Inhibition of high affinity serotonin uptake into rat synaptosomes using [3H]5-HT
[5] = molecular target: T2, Norepinephrine transporter; assay: Ability to inhibit high affinity uptake of norepinephrine transporter into the nerve endings of rat synaptosomes using [3H]NE radioligand
[6] = molecular target: T1, Sodium-dependent dopamine transporter; assay: Ability to inhibit high affinity uptake of DA into the nerve endings of rat synaptosomes using [3H]DA as a radioligand

T2 sequence (Q9WTR4 whole entry): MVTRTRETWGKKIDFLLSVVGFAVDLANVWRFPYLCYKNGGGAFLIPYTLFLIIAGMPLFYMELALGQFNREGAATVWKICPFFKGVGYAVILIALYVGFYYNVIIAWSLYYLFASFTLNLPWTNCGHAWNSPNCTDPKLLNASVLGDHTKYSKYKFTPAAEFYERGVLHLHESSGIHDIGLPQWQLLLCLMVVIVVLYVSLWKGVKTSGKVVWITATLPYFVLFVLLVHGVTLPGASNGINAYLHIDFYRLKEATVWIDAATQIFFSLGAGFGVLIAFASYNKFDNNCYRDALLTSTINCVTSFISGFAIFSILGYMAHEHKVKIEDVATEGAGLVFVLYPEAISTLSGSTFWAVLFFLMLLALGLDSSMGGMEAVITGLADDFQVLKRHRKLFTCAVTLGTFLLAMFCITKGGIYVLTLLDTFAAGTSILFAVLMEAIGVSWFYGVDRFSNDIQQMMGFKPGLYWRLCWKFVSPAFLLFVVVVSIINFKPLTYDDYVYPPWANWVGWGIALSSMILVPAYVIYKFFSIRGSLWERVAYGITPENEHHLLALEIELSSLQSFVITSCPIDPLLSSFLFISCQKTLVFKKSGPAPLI
Sodium-dependent serotonin transporter, sequence (P31652 whole entry): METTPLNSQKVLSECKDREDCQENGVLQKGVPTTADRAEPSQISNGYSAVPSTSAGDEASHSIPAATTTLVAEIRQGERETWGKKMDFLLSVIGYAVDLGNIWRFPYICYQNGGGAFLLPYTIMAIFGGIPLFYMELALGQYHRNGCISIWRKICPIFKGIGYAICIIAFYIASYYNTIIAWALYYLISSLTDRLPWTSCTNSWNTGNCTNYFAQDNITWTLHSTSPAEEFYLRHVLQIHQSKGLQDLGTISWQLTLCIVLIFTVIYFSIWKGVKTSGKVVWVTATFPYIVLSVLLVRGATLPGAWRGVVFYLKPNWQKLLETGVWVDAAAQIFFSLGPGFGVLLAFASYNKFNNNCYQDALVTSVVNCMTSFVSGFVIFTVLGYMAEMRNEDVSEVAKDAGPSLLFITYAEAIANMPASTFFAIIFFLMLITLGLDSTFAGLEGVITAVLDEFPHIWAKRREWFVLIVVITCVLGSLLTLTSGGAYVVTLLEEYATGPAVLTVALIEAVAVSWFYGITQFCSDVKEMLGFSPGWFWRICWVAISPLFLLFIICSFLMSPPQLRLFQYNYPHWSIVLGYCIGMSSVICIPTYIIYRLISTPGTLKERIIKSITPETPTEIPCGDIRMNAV
T1 sequence (P23977 whole entry): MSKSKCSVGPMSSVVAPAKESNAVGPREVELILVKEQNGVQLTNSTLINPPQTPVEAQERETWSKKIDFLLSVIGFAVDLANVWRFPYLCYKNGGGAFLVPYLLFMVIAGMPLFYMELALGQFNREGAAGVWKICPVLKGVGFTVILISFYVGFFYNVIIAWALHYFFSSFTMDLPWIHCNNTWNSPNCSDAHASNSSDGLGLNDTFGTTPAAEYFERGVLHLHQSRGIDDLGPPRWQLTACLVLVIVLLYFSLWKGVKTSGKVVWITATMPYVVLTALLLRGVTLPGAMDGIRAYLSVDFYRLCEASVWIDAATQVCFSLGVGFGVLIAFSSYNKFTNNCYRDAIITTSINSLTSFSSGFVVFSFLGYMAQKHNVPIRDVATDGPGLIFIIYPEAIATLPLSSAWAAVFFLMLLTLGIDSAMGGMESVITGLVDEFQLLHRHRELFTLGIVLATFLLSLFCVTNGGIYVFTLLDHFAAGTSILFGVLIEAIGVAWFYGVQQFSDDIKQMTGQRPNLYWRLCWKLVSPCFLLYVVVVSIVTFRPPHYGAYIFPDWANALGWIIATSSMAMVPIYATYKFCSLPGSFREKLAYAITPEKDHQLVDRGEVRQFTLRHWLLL

Structure (SMILES): CNC(=O)[C@H]1CN(C)CC[C@@H]1c1ccc(Cl)cc1
- Ki [1]: > 12 µM
- Ki [2]: > 9 µM
- Ki [3]: 4.38 µM
- Ki [4]: > 53 µM

Structure (SMILES): CN1CC[C@@H](c2ccc(Cl)cc2)[C@H](C(=O)NCCCNC(=O)[C@@H]2CN(C)CC[C@H]2c2ccc(Cl)cc2)C1
- Ki [1]: > 6.5 µM
- Ki [2]: 5.09 µM
- Ki [3]: 0.373 µM
- Ki [4]: 0.342 µM

Structure (SMILES): COC(=O)[C@H]1CN(C)CC[C@@H]1c1ccc(Cl)cc1
- Ki [1]: 0.248 µM
- Ki [2]: 0.228 µM
- Ki [5]: 0.09 µM
- Ki [4]: 5.88 µM

Structure (SMILES): CN1CC[C@H](c2ccc(Cl)cc2)[C@@H](C(=O)NCCCNC(=O)[C@H]2CN(C)CC[C@@H]2c2ccc(Cl)cc2)C1
- Ki [1]: 0.0084 µM
- Ki [2]: 0.014 µM
- Ki [3]: 0.146 µM
- Ki [4]: 0.566 µM

Structure (SMILES): CN1CC[C@H](c2ccc(Cl)cc2)[C@@H](C(=O)NCCCCCCCCNC(=O)[C@H]2CN(C)CC[C@@H]2c2ccc(Cl)cc2)C1
- Ki [1]: 0.294 µM
- Ki [2]: 0.341 µM
- Ki [3]: 1.98 µM
- Ki [4]: 0.056 µM

Structure (SMILES): CN1CC[C@H](c2ccc(Cl)cc2)[C@@H](C(=O)NCCCCCNC(=O)c2ccc(Cl)cc2)C1
- Ki [1]: 0.194 µM
- Ki [2]: 0.256 µM
- Ki [3]: 0.551 µM
- Ki [4]: 0.159 µM

Structure (SMILES): COC(=O)[C@@H]1CN(C)CC[C@H]1c1ccc(Cl)cc1
- Ki [1]: 1.77 µM
- Ki [2]: 2.89 µM
- Ki [5]: 0.242 µM
- Ki [4]: 3.6 µM

Structure (SMILES): CN1CC[C@H](c2ccc(Cl)cc2)[C@@H](C(=O)NCCCCCNC(=O)c2ccccc2)C1
- Ki [1]: 0.409 µM
- Ki [2]: 0.465 µM
- Ki [3]: 1.2 µM
- Ki [4]: 0.494 µM

- Ki [1]: 0.103 µM
- Ki [2]: 0.039 µM
- Ki [3]: 0.158 µM
- Ki [4]: 0.007 µM
Structure (SMILES): CN1CC[C@H](c2ccc(Cl)cc2)[C@@H](C(=O)NCCCCCNC(=O)[C@H]2CN(C)CC[C@@H]2c2ccc(Cl)cc2)C1

Structure (SMILES): CN1CC[C@H](c2ccc(Cl)cc2)[C@@H](C(=O)NCCCCCNC(=O)/C=C/c2ccc(Cl)cc2)C1
- Ki [1]: 0.246 µM
- Ki [2]: 0.253 µM
- Ki [3]: 1.08 µM
- Ki [4]: 0.133 µM

- Ki [1]: 1.44 µM
- Ki [3]: 0.393 µM
Structure (SMILES): CN1CC[C@@H](c2ccc(Cl)cc2)[C@H](C(=O)NCCCCCNC(=O)[C@@H]2CN(C)CC[C@H]2c2ccc(Cl)cc2)C1

Structure (SMILES): CN1CC[C@H](c2ccc(Cl)cc2)[C@@H](C(=O)OCCCCCOC(=O)[C@H]2CN(C)CC[C@@H]2c2ccc(Cl)cc2)C1
- Ki [1]: 0.064 µM
- Ki [2]: 0.056 µM
- Ki [3]: 0.182 µM
- Ki [4]: 0.025 µM

Structure (SMILES): CN1CC[C@H](c2ccc(Cl)cc2)[C@@H](C(=O)NCCCCCCNC(=O)[C@H]2CN(C)CC[C@@H]2c2ccc(Cl)cc2)C1
- Ki [1]: 0.402 µM
- Ki [2]: 0.075 µM
- Ki [3]: 0.579 µM
- Ki [4]: 0.06 µM

Structure (SMILES): CN1CC[C@@H](c2ccc(Cl)cc2)[C@H](C(=O)NCCCCCCCCNC(=O)[C@@H]2CN(C)CC[C@H]2c2ccc(Cl)cc2)C1
- Ki [6]: 3.18 µM
- Ki [3]: 1.04 µM
- Ki [4]: 0.0021 µM

Structure (SMILES): CN1CC[C@H](c2ccc(Cl)cc2)[C@@H](C(=O)NCCCCCCCNC(=O)[C@H]2CN(C)CC[C@@H]2c2ccc(Cl)cc2)C1
- Ki [1]: 0.348 µM
- Ki [2]: 0.19 µM
- Ki [3]: 0.394 µM
- Ki [4]: 0.04 µM

Structure (SMILES): CN1CC[C@H](c2ccc(Cl)cc2)[C@@H](C(=O)NCCCCNC(=O)[C@H]2CN(C)CC[C@@H]2c2ccc(Cl)cc2)C1
- Ki [1]: 0.081 µM
- Ki [2]: 0.033 µM
- Ki [3]: 0.104 µM
- Ki [4]: 0.534 µM

Structure (SMILES): CN1CC[C@H](c2ccc(Cl)cc2)[C@@H](C(=O)OCCCOC(=O)[C@H]2CN(C)CC[C@@H]2c2ccc(Cl)cc2)C1
- Ki [1]: 0.068 µM
- Ki [2]: 0.108 µM
- Ki [3]: 0.34 µM
- Ki [4]: 0.73 µM

Structure (SMILES): CNC(=O)[C@@H]1CN(C)CC[C@H]1c1ccc(Cl)cc1
- Ki [1]: > 39 µM
- Ki [2]: > 70 µM
- Ki [5]: 3.11 µM
- Ki [4]: > 10 µM

Structure (SMILES): CN1CC[C@H](c2ccc(Cl)cc2)[C@@H](C(=O)OCCCCCCCCOC(=O)[C@H]2CN(C)CC[C@@H]2c2ccc(Cl)cc2)C1
- Ki [1]: 0.92 µM
- Ki [2]: 0.142 µM
- Ki [3]: 0.658 µM
- Ki [4]: 0.175 µM
